Measured values from PubChem BioAssay (NCI).
Where “and” joins values, the source holds several entries; their conditions need not be identical. Identical values can stand only once.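 Cells were grown in 96-well plates and exposed to each compound for 48 hours at five concentrations; endpoints were interpolated linearly between bracketing concentrations, or set to the highest concentration if not reached. Here, GI50 denotes the concentration required for 50% inhibition of growth. TGI marks complete inhibition of growth.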

How the values were obtained:
Assay in all cases: DTP human tumour cell line panel, 48 h
CCRF-CEM leukemia = system: CCRF-CEM leukemia
HL-60(TB) leukemia = system: HL-60(TB) leukemia
MDA-MB-435 = system: MDA-MB-435
MOLT-4 leukemia = system: MOLT-4 leukemia
NCI-H460 lung = system: NCI-H460 lung
NCI-H522 lung = system: NCI-H522 lung
OVCAR-4 ovarian = system: OVCAR-4 ovarian
PC-3 prostate = system: PC-3 prostate
SN12C renal = system: SN12C renal
U251 CNS = system: U251 CNS

Structure (SMILES) | GI50 (CCRF-CEM leukemia) | TGI (CCRF-CEM leukemia) | GI50 (HL-60(TB) leukemia) | TGI (HL-60(TB) leukemia) | GI50 (MDA-MB-435) | TGI (MDA-MB-435) | GI50 (MOLT-4 leukemia) | TGI (MOLT-4 leukemia) | GI50 (NCI-H460 lung) | TGI (NCI-H460 lung) | GI50 (NCI-H522 lung) | TGI (NCI-H522 lung) | GI50 (OVCAR-4 ovarian) [µM] | TGI (OVCAR-4 ovarian) | GI50 (PC-3 prostate) | TGI (PC-3 prostate) | GI50 (SN12C renal) | TGI (SN12C renal) | GI50 (U251 CNS) | TGI (U251 CNS)
CCCCCCCCCc1cc[n+](CC(=O)c2ccc([N+](=O)[O-])cc2)cc1 | 1.95 µM | 5.01 µM | 1.7 µM | 3.64 µM | 0.391 µM | 1.56 µM | 2.1 µM | 5.27 µM | 1.53 µM | 3.08 µM | 1.36 µM | 2.87 µM | 0.78 | 2.57 µM | 0.552 µM | 1.88 µM | 0.581 µM | 1.9 µM | 0.457 µM | 1.76 µM
COc1cc(Nc2ncc(F)c(Nc3ccc4c(n3)NC(=O)C(C)(C)O4)n2)cc(OC)c1OC | 6.32 µM | > 10 µM | > 10 µM | > 10 µM | > 10 µM | > 10 µM | 3.38 µM and 6.7 µM | > 100 µM | > 100 µM | > 100 µM | 1.94 µM and 1.43 µM | > 100 µM | > 100 | > 100 µM | > 10 µM | > 10 µM | 0.667 µM and 2.86 µM | > 100 µM | > 10 µM | > 10 µM
COc1ccc(C[C@@H]2NC[C@@H](O)[C@@H]2OC(C)=O)cc1 | 4.35 µM | – | 1.72 µM | – | – | 0.0883 µM | 2.81 µM | – | 3.43 µM | – | 2.06 µM | – | 25.9 | – | – | 0.255 µM | 3.19 µM | – | – | 0.453 µM
O=C(O)CCC/C=C\C[C@H]1C=CC(=O)/C1=C/C[C@@H](O)CCc1cccc(C(F)(F)F)c1 | 0.465 µM | 10.8 µM | 2.37 µM | 6.9 µM | 1.82 µM | 4.94 µM | 2.21 µM | 7.34 µM | 2.23 µM | 4.96 µM | 1.35 µM | 3.8 µM | 3.94 | 16.8 µM | 3.12 µM | 10.3 µM | 3.41 µM | 26.8 µM | 1.55 µM | 3.45 µM
O=[N+]([O-])/C=C/c1cc2ccccc2[nH]1 | – | 9.61 µM | – | 24.3 µM | – | 6.95 µM | – | 44.2 µM | – | 30.4 µM | – | 24.2 µM | – | 27.4 µM | – | 31.7 µM | – | 37.2 µM | – | 25.8 µM
CN1CCN(c2ccc(Nc3nc(N)c(C(=O)c4ccc5c(c4)OCCO5)s3)cc2)CC1 | 4.66 µM | 23.9 µM | 4.62 µM | 11.6 µM | 3.44 µM | 12.2 µM | 1.89 µM | 10 µM | 2.85 µM | 9.75 µM | 4.32 µM | 9.84 µM | 4.02 | 10.5 µM | 1.77 µM | 8.47 µM | 3.33 µM | > 25 µM | 2.83 µM | 11 µM
Nc1ncnc2c1c(-c1cccc(OCc3ccccc3)c1)cn2C1CC(CN2CCC2)C1 (stereo not given) | 2.58 µM and 2.97 µM | 7.99 µM and > 10 µM | 0.112 µM and 0.0969 µM | 2.08 µM and 2.04 µM | 1.21 µM and 1.49 µM | 3.12 µM and 6.89 µM | 2.82 µM and 2.56 µM | 8.59 µM and > 10 µM | 2.41 µM and 2.87 µM | 15.4 µM and > 10 µM | 2.18 µM and 7.48 µM | 5.92 µM and > 10 µM | 3.49 | 15.3 µM and > 10 µM | 2.94 µM and 5.42 µM | 13.9 µM and > 10 µM | 4.59 µM and 5.75 µM | 18 µM and > 10 µM | 1.82 µM and 3 µM | 3.94 µM and > 10 µM
